According to patent US6541463B1, “Inhibitors of type 5 and type 3 17β-hydroxysteroid dehydrogenase and methods for their use” (Endorecherche, Inc., priority 1998, dated 2003):

Assays:
[1] = biological target: T1, human type 5 17β-hydroxysteroid dehydrogenase (Homo sapiens, UniProt P42330); experiment: Inhibition of human type 5 17β-HSD activity in transfected 293 cells; format: cell-based; parameters: Inhibition Type V 17B-HSD % Inh. At 3 · 10^−7 (second value in parentheses): concentration or dose not given beside the values
T1 construct: screen again a human placental λgt11 cDNA to get the full length cDNA clone; expressed in transfected cells; host or cells: human embryonal kidney 293 cells (pCMV / pCMV-neo vector)
T1 sequence (P42330 1-323): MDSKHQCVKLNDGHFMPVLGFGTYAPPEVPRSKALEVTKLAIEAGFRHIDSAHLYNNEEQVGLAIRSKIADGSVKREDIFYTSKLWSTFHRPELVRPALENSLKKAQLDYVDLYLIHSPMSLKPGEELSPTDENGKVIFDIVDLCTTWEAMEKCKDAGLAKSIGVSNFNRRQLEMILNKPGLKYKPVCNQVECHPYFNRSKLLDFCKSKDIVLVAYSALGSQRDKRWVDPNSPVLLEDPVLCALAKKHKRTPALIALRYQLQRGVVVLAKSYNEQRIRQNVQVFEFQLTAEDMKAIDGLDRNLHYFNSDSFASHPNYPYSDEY
Procedure: The manner in which IC50 was determined is described in “Efficacy of the Preferred Inhibitors”. Lower numbers for IC50 are desirable.
Using a oligoprimer pair (5′-GGA-AAT-CGT-GAC-AGG-GAA-TGG-ATT-CCA-AAC-AG-3′, 5′-GGA-ATT-CTT-TAT-TGT-ATT-TCT-GGC-CTA-TGG-AGT-GAG-3′) derived from human aldoketoreductase (Qin et al., J. Steroid Biochem. Molec. Biol. 46: 673-679, 1993) and polymerase chain reaction (PCR), we have amplified from a human placental λgt11 cDNA library (Clontech Laboratories Inc., Palo Alto, Calif.) a cDNA fragment that was used as probe to screen again a human placental λgt11 cDNA to get the full length cDNA clone. The amplified cDNA fragment was purified on agarose gel and labeled with [α^32P]dCTP (Amersham Corp.) using the random primer labeling kit from Pharmacia Inc. PCR amplification reaction medium contained 50 mM KCl, 10 mM Tris-HCl, pH 8.3, 0.1% gelatin, 1 mM MgCl2, 250 μM dNTP, 0.25 μM oligonucleotide primers, and 200 ng of DNA prepared from human placental λgt11 cDNA library. The aqueous phase was overlaid with 75 μL of mineral oil to avoid evaporation. The mixture was heated at 98° C. for 5 min, following the temperature reduction to 72° C., 1 unit of Taq DNA polymerase was added. Using a DNA Thermal Cycler (Perkin-Elmer Corp.), 30 cycles of amplification were carried out using a step program (94° C., 1 min; 60° C., 1 min; and 72° C., 1 min)/cycle.
Approximately 5×10^5 recombinant phage plaques were screened with 1.5×10^6 cpm/ml of the probe. Prehybridization was performed for 4 h at 42° C. in 50% formamide, 5× Denhardt's solution (1× Denhardt's being 0.02% polyvinyl pyrrolidone, 0.02 Ficoll, 0.02 bovine serum albumin), 5×SSPE (1×SSPE being 0.18M NaCl, 10 mM NaH2PO4, pH 7.4, 1 mM EDTA), 0.1% SDS, and 100 μg/ml yeast tRNA. The probe was denatured by heating at 100° C. for 5 min, before being added to the hybridization solution at 42° C. overnight. Filters were then washed twice at room temperature in 2×SSC (1×SSC being […], pH 7.0), 0.1% SDS, and twice in 0.1×SSC, 0.1% SDS at 60° C. Positive recombinant plaques were purified by replating twice and grown in liquid culture. Phage DNA were isolated by centrifugation for 90 min at 105,000×g, and DNA was then isolated by phenol extraction and precipitation with isopropanol (Karen et al. 1987; In: Current Protocols in Molecular Biology (F. M. Ausubel, R. Brent, E. Kingston, D. D. Moore, T. G. Seidman, T. A. Smith and K. Struhl, eds), Wiley & Sons, New York, pp. 1.13.1-1.13.6).
The phage DNA were digested with EcoRI restriction enzymes and the resulting cDNA fragments were inserted into the EcoRI site downstream to the cytomegalovirus (CMV) promoter of the pCMV vector (kindly provided by Dr. Matthew, Cold Spring Harbor, N.Y., USA). Recombinant pCMV plasmids were amplified in Escherichia Coli DH5α competent cells, and were isolated by alkaline lysis procedure (Maniatis et al., In: Molecular cloning: a laboratory manual, Cold Spring Harbor Laboratory., 1982). Sequencing of double-stranded plasmid DNA was performed according to the dideoxy chain termination method (Sanger et al., PNAS 74: 5453-5467, 1977) using a T7 DNA polymerase sequencing kit (Pharmacia LKB Biotechnology). To avoid errors, all sequences were determined by sequencing both strands of the DNA. Oligonucleotide primers were synthesized in our laboratory with a 394 DNA/RNA synthesizer (Applied Biosystem).
The pCMV vector contain 576 nucleotides of the pCMV promoter (followed by 432 bp of small t intron (fragment 4713-4570) and poly adenylation signal (2825-2536)of SV40, followed by 1989 bp of the Pvu II(628)-AatII (2617) fragment from pUC 19 vector (New England Biolabs) that contains an E. Coli origin of replication and an ampicillin resistance gene for propagation in E. Coli. […]

[2] = system: Shionogi mouse mammary carcinoma cells; experiment: Androgenic activity: stimulation of proliferation of Shionogi cells; format: cell-based
Procedure: In column 9, the androgenic activity of preferred type 5 inhibitors expressed as the percentage of stimulation of proliferation of Shionogi cells at concentrations of 10^−7 M (left number) and 10^−6 M (right number) of inhibitor. The manner in which the stimulation is determined is described in “Other Tests; B-Androgenic/Antiandrogenic Activity”. Lower numbers are desirable. ND means that a determination was not done.
Androgenic/antiandrogenic activity of some preferred compounds has been measured using the Shionogi mouse mammary carcinoma cells.
Minimal essential culture medium (MEM), non-essential amino acids, and fetal calf serum were purchased from Flow Laboratories. In order to remove endogenous steroids, serum was incubated overnight at 4° C. with 1% activated charcoal (Norit A, Fisher) and 0.1% Dextran T-70 (Pharmacia). A 2-h supplementary adsorption was performed at 25° C. in order to further remove protein-bound steroids. Serum was also inactivated by a 20-min incubation at 56° C.
5α-dihydrotestosterone (DHT) was obtained from Steraloids. The antiandrogen hydroxyflutamide (OH-FLU) was kindly supplied by Drs. T. L. Nagabuschan and R. Neri (Schering Corporation, Kenilworth, U.S.A.).
Shionogi male mice bearing androgen-sensitive mammary tumors were obtained from Drs. Keishi Matsumoto, Osaka, Japan, and Yvonne Lefebvre, Ottawa, Canada. For primary culture, tumors were excised and washed in ice-cold sterile 25 mM Hepes buffer (137 mM NaCl; 5 mM KCl; 0.7 mM Na2HPO4; 10 mM glucose, pH 7.2). After mincing with scissors, the tumor minces were digested for 2 h at 37° C. in Hepes buffer containing 3.8 mg/ml collagenase (Clostridium, Boehringer), 1.5 mg/ml hyaluronidase II (Sigma), and 3% bovine serum albumin fraction V (Schwartz-Mann). Dispersed cells were collected by centrifugation (500×g for 10 min), washed twice by suspension in minimal essential medium (MEM) containing 5% dextran-coated charcoal-treated fetal calf serum (DCC-FCS), 1% non-essential amino acids, 10 IU/ml penicillin, 50 μg/ml streptomycin, and 100 nM dihydrotestosterone (DHT) (Steraloids).
Cells were plated in the same medium at a density of 75 000 cells/ml in 75 cm^2 flasks under an atmosphere of 5% carbon dioxide in air at 37° C. The medium was changed weekly. The steroids and antisteroids were dissolved in ethanol and kept in stock solutions chosen to yield final ethanol concentrations less than 0.01% in the culture medium.
Cells were subcultured at near-confidence by gentle digestion in a solution of 0.1% pancreatin (Flow Laboratories) in Hepes buffer containing 3 mM ethylenediaminetetraacetic acid (EDTA) (pH 7.2). Cells were pelleted by centrifugation, resuspended in culture medium, counted in a Coulter counter, and replated as described above. Soft agar cloning was performed as described (Stanley et al., Cell 10: 35-44, 1977) in the presence of 100 nM DHT.
Cells were plated in 24-well plates at a density of 20 000 cells/well. The indicated increasing concentrations of agents were added to triplicate dishes, and cells were grown for 10-12 days with changes of medium every 3-4 days. Cell number was measured by direct counting in a Coulter counter.
ED50 values of action of DHT and glucocorticoids were calculated according to a least-square regression as described (Rodbard, Endocrinology 94: 1427-1431, 1974). Statistical significance was calculated according to a multiple-range test (Kramer, Biometrics 12: 307-310,1956).

Question: For `CCCCCO[C@]1(C(C)=O)CC[C@H]2[C@@H]3C=C(C)C4=CC(=O)CC[C@]4(C)[C@H]3CC[C@@]21C` [EM-1127, 6-Methyl-17α-pentyloxy-4,6-pregnadien-3,20-dione], which “Inhibition Type V 17β-HSD % Inh.” value ([1]; at 3.10^−6) is on record?
Answer: 91) %

Question: And the “Inhibition Type V 17β-HSD % Inh.” value ([1]; at 3.10^−7)?
Answer: (71%

Question: And the “Androgenic Activity Shionogi, Basal” value ([2]; E^−6)?
Answer: 92

Question: What about the “Androgenic Activity Shionogi, Basal” value ([2]; E^−7) of the same molecule?
Answer: 85

Question: With `CC(=O)O[C@]1(C(C)=O)CC[C@H]2[C@@H]3C[C@H](C)C4=CC(=O)CC[C@]4(C)[C@H]3CC[C@@]21C` [Medroxyprogesterone acetate, reference compound] as the molecule, how does the “inhibition of type 5 17β-hydroxysteroid dehydrogenase (in words)” value [1] read?
Answer: inhibit that type 5 enzyme

Question: Which results are given for `CC12CCC(=O)C=C1C=CC1C2CCC2(C)C(=O)C3CCCC3C12` (centres unmarked) [SA-208-59]?
Answer: Inhibition Type V 17B-HSD % Inh. At 3 · 10^−7 (first value in parentheses) ([1]; first of two concentrations, 3 · 10^−7): (72%; Inhibition Type V 17B-HSD % Inh. At 3 · 10^−7 (second value in parentheses) ([1]; second of two concentrations, 3 · 10^−7): 88) %

Question: With `CC(=O)O[C@]1(C(C)=O)CC[C@H]2[C@@H]3C=C(Cl)C4=CC(=O)CC[C@]4(C)[C@H]3CC[C@@]21C` [chlormadinone acetate, reference compound] as the molecule, how does the “inhibition of type 5 17β-hydroxysteroid dehydrogenase (in words)” value [1] read?
Answer: inhibit that type 5 enzyme
